{"source": "patent US20190110476A1", "about": "“NOVEL ISOTHIAZOLAMIDES, PROCESSES FOR THEIR PREPARATION AND THEIR USE AS FUNGICIDES” (priority 2014, published 2019)", "data": [{"assay": "Measurement of LogP values by HPLC on reversed phase columns (EEC directive 79/831 Annex V.A8)", "assay_type": "physicochemical", "conditions": "not given", "summary_of_the_method": "(§1)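 Following EEC directive 79/831 Annex V.A8, lipophilicity was derived from retention on reversed-phase HPLC columns. Separate values are given per diastereoisomer, and UV lambda-max (200–400 nm) was read at the peak signals.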", "values": [{"smiles": "O=C(NCC1CCCCC1)c1snc(N=S(Cc2ccccc2)Cc2ccccc2)c1Cl", "note": "[II-084]", "LogP [a]": "4.38^[a]"}, {"smiles": "CS(Cc1ccccc1Cl)=Nc1nsc(C(=O)NCC2CCCCC2)c1Cl", "note": "(stereo not drawn) [II-085]", "LogP [a]": "3.61^[a]"}, {"smiles": "CCCS(CC)=Nc1nsc(C(=O)NCC2CCCCC2)c1Cl", "note": "(stereo not drawn) [II-086]", "LogP [c]": "1.90^[c]"}, {"smiles": "O=C(NCC1CCCCC1)c1snc(N=S2CCCCC2)c1Cl", "note": "[II-088]", "LogP [a]": "2.60^[a]"}, {"smiles": "CCCS(C)=Nc1nsc(C(=O)NCC2CCCCC2)c1Cl", "note": "(stereo not drawn) [II-089]", "LogP [a]": "2.23^[a]"}, {"smiles": "O=C(NCC1CCCCC1)c1snc(N=S2CCOCC2)c1Cl", "note": "[II-090]", "LogP [a]": "2.49^[a]"}, {"smiles": "CCS(C)=Nc1nsc(C(=O)NCC2CCCCC2)c1Cl", "note": "(stereo not drawn) [II-091]", "LogP [a]": "1.94^[a]"}, {"smiles": "O=C(NCC1CCCCC1)c1snc(N=S(c2ccccc2)c2ccccc2)c1Cl", "note": "[II-092]", "LogP [a]": "4.77^[a]"}, {"smiles": "CCCS(CC)=Nc1nsc(C(=O)NCC2CCCCC2)c1F", "note": "(stereo not drawn) [II-093]", "LogP [a]": "2.07^[a]"}, {"smiles": "CCCS(CC)=Nc1nsc(C(=O)NCc2ccc(F)cc2F)c1F", "note": "(stereo not drawn) [II-094]", "LogP [a]": "1.77^[a]"}, {"smiles": "O=C(NCCc1ccccc1)c1snc(N=C(c2ccccc2)c2ccccc2)c1Cl", "note": "[II-095]", "LogP [a]": "4.69^[a]"}, {"smiles": "COc1ccc(CNc2nsc(C(=O)N3CCCc4ccccc43)c2Cl)cc1", "note": "[II-097]", "LogP [a]": "3.84^[a]"}, {"smiles": "COc1ccc(CNc2nsc(C(=O)N3CCc4c(Cl)cccc4C3)c2Cl)cc1", "note": "[II-098]", "LogP [a]": "4.20^[a]"}, {"smiles": "COc1ccc(CNc2nsc(C(=O)N3CCCc4cc(C)ccc43)c2Cl)cc1", "note": "[II-099]", "LogP [a]": 4.24, "LogP [b]": 4.15}, {"smiles": "COc1ccc(CNc2nsc(C(=O)N3c4ccccc4CCC3C)c2Cl)cc1", "note": "(stereo not drawn) [II-100]", "LogP [a]": 4.14, "LogP [b]": 4.09}, {"smiles": "CC1CCc2ccccc2N1C(=O)c1snc(N)c1Cl", "note": "(stereo not drawn) [II-101]", "LogP [a]": 2.48, "LogP [b]": 2.39}, {"smiles": "COc1ccc(CNc2nsc(C(=O)N3CCCC3)c2Cl)cc1", "note": "[II-102]", "LogP [a]": 2.72, "LogP [b]": 2.66}, {"smiles": "CCCS(CC)=Nc1nsc(C(=O)NCc2cc(F)c(F)cc2F)c1F", "note": "(stereo not drawn) [II-103]", "LogP [a]": "2.10^[a]"}, {"smiles": "CCCS(CC)=Nc1nsc(C(=O)NCc2ccc(F)c(F)c2F)c1F", "note": "(stereo not drawn) [II-104]", "LogP [a]": "1.96^[a]"}, {"smiles": "CCCS(CC)=Nc1nsc(C(=O)NCc2c(F)cc(F)cc2F)c1F", "note": "(stereo not drawn) [II-105]", "LogP [a]": "1.92^[a]"}, {"smiles": "COc1ccc(CNc2nsc(C(N)=O)c2Cl)cc1", "note": "[II-106]", "LogP [a]": "1.94^[a]"}, {"smiles": "O=C(Nc1ccccc1)c1snc(N=C(c2ccccc2)c2ccccc2)c1Cl", "note": "[II-107]", "LogP [a]": "4.62^[a]"}, {"smiles": "COc1ccc(CNc2nsc(C(=O)N3CCCCC3)c2Cl)cc1", "note": "[II-108]", "LogP [a]": 3.22, "LogP [b]": 3.16}, {"smiles": "O=C(Nc1nscc1Cl)c1ccc(F)cc1", "note": "[Z-A-002]", "LogP [a]": "1.74^[a]"}, {"smiles": "CC(C)(C)C(=O)Nc1nscc1Cl", "note": "[Z-A-004]", "LogP [a]": "1.55^[a]"}, {"smiles": "COc1ccc(CNc2nscc2Cl)cc1", "note": "[Z-A-005]", "LogP [a]": "3.00^[a]"}, {"smiles": "COc1ccc(CN(Cc2ccccc2)c2nscc2Cl)cc1", "note": "[Z-A-007]", "LogP [a]": "5.03^[a]"}, {"smiles": "COc1ccc(CN(Cc2ccc(C)cc2)c2nscc2Cl)cc1", "note": "[Z-A-008]", "LogP [a]": "5.48^[a]"}]}, {"assay": "Measurement of LogP values by HPLC on reversed phase columns (EEC directive 79/831 Annex V.A8)", "assay_type": "physicochemical", "conditions": "HPLC LC-UV, acidic range, 0.1% formic acid in water and acetonitrile as eluent", "summary_of_the_method": "as §1", "values": [{"smiles": "Nc1nsc(C(=O)O)c1Br", "note": "[E-VIII-015, 3-amino-4-bromo-1,2-thiazole-5-carboxylic acid]", "chromatographic logP": -0.07}, {"smiles": "c1ccc(CN(Cc2ccccc2)c2ccsn2)cc1", "note": "[Z-A-001, N,N-dibenzyl-1,2-thiazol-3-amine]", "chromatographic logP": 4.13}]}, {"assay": "not given", "conditions": "not given", "units": {"melting point": "°C"}, "values": [{"smiles": "Nc1nsc(C(=O)O)c1Br", "note": "[E-VIII-015, 3-amino-4-bromo-1,2-thiazole-5-carboxylic acid]", "melting point": 164.5}]}]}
